Assay results taken from patent publication US10506810B2, “Synergistic herbicidal composition” (QINGDAO KINGAGROOT RESISTANT WEED MANAGEMENT CO., LTD., priority 2015, dated 2019).
Read-outs that look alike come from different tables or passages of the source.

Columns and labels:
Test in all cases: pot-culture method, stem and leaf treatment in greenhouse, fresh weight inhibition rate 20 days after treatment (Gowing method)
Assay type in all cases: in vivo
[1] = tested on: Alopecurus japonicus
Protocol: (§1) Capsella bursa-pastoris, Myosoton aquaticum, Alopecurus japonicus were collected from corn fields in Huangdao Experimental Base of Shandong Province.
(§2) The above weeds were cultivated by a pot culture method. […] Full and uniform weed seeds were selected, soaked in warm water at 25° C. for 6 hours, and germinated in a 28° C. biochemical incubator (darkness). […] A certain amount of water was added to the enamel pan regularly to keep the soil moist.
(§3) The technical materials were all dissolved in acetone, and diluted with an aqueous solution containing 0.1% emulsifier T-80. The dilution is performed as required.
(§4) A ratio of the active ingredient A to the active ingredient B and amounts thereof in each group depends on the characteristics and toxicity of the two agents, as well as the main application purpose of a corresponding formulation. Based on the pre-tests in this study, the dosage of the active ingredient A and the active ingredient B applied alone and in combination were shown in the tables, and a total 15 groups were designed. Water containing the solvent and emulsifier same with the above groups but free of the agents was used as a blank control.
(§5) 3 pots with 20 weed seeds per pot were treated in one treatment with […] per treatment, that is, a total of 60 weeds were treated in one treatment.
(§6) The agents were used for only once in the experiment. In the stage of weeds with 2 leaves and 1 core, the weeds were thinned out to maintain 15 weeds per pot and 45 weeds for each treatment, then continued to be cultured to 3-5-leaves stage of Capsella bursa-pastoris and Myosoton aquaticum, and 3-leaves and 1-core stage of Alopecurus japonicus, and treated.
(§7) The well-cultured weeds were evenly placed on a platform with an area of 0.5 m^2, and a solution of agents was sprayed on the stems and leaves thereof by the 3WP-2000-type walking spray tower at a dosage of 30 kg/ha and at a spray pressure of 0.3 MPa. After all the solution was sprayed, the valve was closed. After 30 seconds, the door of the spray tower was opened, and the nutritional bowl was taken out. Then the valve was opened, and the spray tube was cleaned by spraying 50 ml of water.
(§8) A pot-culture method was employed. For the cultivation of weeds, please refer to the Section 1.2, and “Pesticide guidelines for laboratory bioactivity tests—herbicides”. As to a method for applying agents, please refer to the section 2.3.2, that is, a method for treating stems and leaves was employed.
(§9) A method for investigating absolute number was employed, wherein whole seedlings of survival weeds were cut off with a blade along the soil surface, and the fresh weight of the weeds was weighed with an analytical balance. For dead weeds, the fresh weight thereof was zero.
(§10) The investigation was performed after 20 days of the treatment for only once.
(§11) Wherein, in the formula, X represented the fresh weight inhibition rate of the active ingredient A in a dosage of P, and Y represented the fresh weight inhibition rate of the active ingredient B in a dosage of Q.

[2] = tested on: Capsella bursa-pastoris
Protocol: as §1, §2, §3, §4, §5, §6, §7, §8, §9, §10, §11

[3] = tested on: Myosoton aquaticum
Protocol: as §1, §2, §3, §4, §5, §6, §7, §8, §9, §10, §11

[4] = Capsella bursa-pastoris, 40 g/hm^2
[5] = Capsella bursa-pastoris, 480 h, read-out: actual fresh weight inhibition rate

## COc1nn(C(=O)[N-]S(=O)(=O)c2ccccc2OC(F)(F)F)c(=O)n1C.[Na+] [Flucarbazone-sodium]
[1]; dosage 20 g/hm^2
  actual fresh weight inhibition rate: 69.6%
[1]; dosage 35 g/hm^2
  actual fresh weight inhibition rate: 80.3%
[1]; dosage 50 g/hm^2
  actual fresh weight inhibition rate: 85.6%
[2]; dosage 20 g/hm^2
  actual fresh weight inhibition rate: 25.6%
[2]; dosage 35 g/hm^2
  actual fresh weight inhibition rate: 42.7%
[2]; dosage 50 g/hm^2
  actual fresh weight inhibition rate: 65.1%

## Cc1nn(C)cc1C(=O)Oc1c(C(=O)c2ccc(C(F)(F)F)cc2S(C)(=O)=O)c(C)nn1C [active ingredient A]
[1]; Alopecurus japonicus, 15 g/hm^2
  actual fresh weight inhibition rate: 13.2%
[1]; Alopecurus japonicus, 30 g/hm^2
  actual fresh weight inhibition rate: 16.5%
[1]; Alopecurus japonicus, 45 g/hm^2
  actual fresh weight inhibition rate: 24.6%
[1]; dosage 15 g/hm^2
  actual fresh weight inhibition rate: 13.2%
[1]; dosage 30 g/hm^2
  actual fresh weight inhibition rate: 16.5%
[1]; dosage 45 g/hm^2
  actual fresh weight inhibition rate: 24.6%
[2]; 480 h, Capsella bursa-pastoris, 15 g/hm^2, read-out: actual fresh weight inhibition rate
  pest or weed control at 15 g/ha: 72.3%
[2]; 480 h, Capsella bursa-pastoris, 30 g/hm^2, read-out: actual fresh weight inhibition rate
  pest or weed control at 30 g/ha: 90.5%
[2]; 480 h, Capsella bursa-pastoris, 45 g/hm^2, read-out: actual fresh weight inhibition rate
  pest or weed control at 45 g/ha: 100%
[3]; Myosoton aquaticum, 480 h, Myosoton aquaticum (Table 19), 15 g/hm^2, read-out: actual fresh weight inhibition rate
  pest or weed control at 15 g/ha: 13.2%
[3]; Myosoton aquaticum, 480 h, Myosoton aquaticum (Table 19), 30 g/hm^2, read-out: actual fresh weight inhibition rate
  pest or weed control at 30 g/ha: 16.5%
[3]; Myosoton aquaticum, 480 h, Myosoton aquaticum (Table 19), 45 g/hm^2, read-out: actual fresh weight inhibition rate
  pest or weed control at 45 g/ha: 24.6%
[3]; Myosoton aquaticum, 480 h, Myosoton aquaticum, 15 g/hm^2, read-out: actual fresh weight inhibition rate
  pest or weed control at 15 g/ha: 67.4%
[3]; Myosoton aquaticum, 480 h, Myosoton aquaticum, 30 g/hm^2, read-out: actual fresh weight inhibition rate
  pest or weed control at 30 g/ha: 87.6%
[3]; Myosoton aquaticum, 480 h, Myosoton aquaticum, 45 g/hm^2, read-out: actual fresh weight inhibition rate
  pest or weed control at 45 g/ha: 100%
[3]; Myosoton aquaticum, 480 h, dosage 15 g/hm^2, read-out: actual fresh weight inhibition rate
  pest or weed control at 15 g/ha: 67.4%
[3]; Myosoton aquaticum, 480 h, dosage 30 g/hm^2, read-out: actual fresh weight inhibition rate
  pest or weed control at 30 g/ha: 87.6%
[3]; Myosoton aquaticum, 480 h, dosage 45 g/hm^2, read-out: actual fresh weight inhibition rate
  pest or weed control at 45 g/ha: 100%

## C[C@@H](Oc1ccc(Oc2ncc(Cl)cc2F)cc1)C(=O)O [clodinafop]
[1]; Alopecurus japonicus, 40 g/hm^2
  actual fresh weight inhibition rate: 81.3%
[1]; Alopecurus japonicus, 65 g/hm^2
  actual fresh weight inhibition rate: 87.4%
[1]; Alopecurus japonicus, 90 g/hm^2
  actual fresh weight inhibition rate: 95.6%
[2]; [4]
  actual fresh weight inhibition rate: 0%
[2]; Capsella bursa-pastoris, 65 g/hm^2
  actual fresh weight inhibition rate: 0%
[2]; Capsella bursa-pastoris, 90 g/hm^2
  actual fresh weight inhibition rate: 0%

## COC(=O)c1ccc(CNS(C)(=O)=O)cc1S(=O)(=O)NC(=O)Nc1nc(OC)cc(OC)n1 [mesosulfuron-methyl]
[1]; dosage 6 g/hm^2
  actual fresh weight inhibition rate: 67.9%
[1]; dosage 9 g/hm^2
  actual fresh weight inhibition rate: 73.2%
[1]; dosage 12 g/hm^2
  actual fresh weight inhibition rate: 88.9%
[2]; dosage 6 g/hm^2
  actual fresh weight inhibition rate: 24.5%
[2]; dosage 9 g/hm^2
  actual fresh weight inhibition rate: 37.6%
[2]; dosage 12 g/hm^2
  actual fresh weight inhibition rate: 63.4%

## CSc1nnc(C(C)(C)C)c(=O)n1N [metribuzin, reference compound]
[2]; dosage 13.5 g/hm^2
  actual fresh weight inhibition rate (%): 55.6%
[2]; dosage 25 g/hm^2
  actual fresh weight inhibition rate (%): 64.1%
[2]; dosage 36.5 g/hm^2
  actual fresh weight inhibition rate (%): 82.3%
[3]; dosage 13.5 g/hm^2
  actual fresh weight inhibition rate (%): 42.1%
[3]; dosage 25 g/hm^2
  actual fresh weight inhibition rate (%): 52.9%
[3]; dosage 36.5 g/hm^2
  actual fresh weight inhibition rate (%): 58.5%

## O=C(Nc1ccc(F)cc1)c1cccc(Oc2cccc(C(F)(F)F)c2)n1 [picolinafen]
[2]; [4]
  actual fresh weight inhibition rate: 16.4%
[2]; Capsella bursa-pastoris, 80 g/hm^2
  actual fresh weight inhibition rate: 33.2%
[2]; Capsella bursa-pastoris, 120 g/hm^2
  actual fresh weight inhibition rate: 55.6%
[3]; Myosoton aquaticum, 40 g/hm^2
  actual fresh weight inhibition rate: 14.5%
[3]; Myosoton aquaticum, 80 g/hm^2
  actual fresh weight inhibition rate: 34.9%
[3]; Myosoton aquaticum, 120 g/hm^2
  actual fresh weight inhibition rate: 50.5%

## CCc1cc(C)cc(CC)c1-c1c(OC(=O)C(C)(C)C)n2n(c1=O)CCOCC2 [pinoxaden]
[1]; dosage 60 g/hm^2
  actual fresh weight inhibition rate: 69.2%
[1]; dosage 80 g/hm^2
  actual fresh weight inhibition rate: 78.6%
[1]; dosage 120 g/hm^2
  actual fresh weight inhibition rate: 85.2%
[2]; Capsella bursa-pastoris, 480 h, dosage 60 g/hm^2, read-out: actual fresh weight inhibition rate
  pest or weed control at 60 g/ha: 0%
[2]; Capsella bursa-pastoris, 480 h, dosage 80 g/hm^2, read-out: actual fresh weight inhibition rate
  pest or weed control at 80 g/ha: 0%
[2]; Capsella bursa-pastoris, 480 h, dosage 120 g/hm^2, read-out: actual fresh weight inhibition rate
  pest or weed control at 120 g/ha: 0%

## CSc1nc(NC(C)C)nc(NC(C)C)n1 [prometryn]
[2]; 480 h, Capsella bursa-pastoris, 150 g/hm^2, read-out: actual fresh weight inhibition rate
  pest or weed control at 150 g/ha: 20.4%
[2]; 480 h, Capsella bursa-pastoris, 450 g/hm^2, read-out: actual fresh weight inhibition rate
  pest or weed control at 450 g/ha: 29.6%
[2]; 480 h, Capsella bursa-pastoris, 750 g/hm^2, read-out: actual fresh weight inhibition rate
  pest or weed control at 750 g/ha: 45.7%
[3]; Myosoton aquaticum, 480 h, Myosoton aquaticum, 150 g/hm^2, read-out: actual fresh weight inhibition rate
  pest or weed control at 150 g/ha: 22.6%
[3]; Myosoton aquaticum, 480 h, Myosoton aquaticum, 450 g/hm^2, read-out: actual fresh weight inhibition rate
  pest or weed control at 450 g/ha: 33.7%
[3]; Myosoton aquaticum, 480 h, Myosoton aquaticum, 750 g/hm^2, read-out: actual fresh weight inhibition rate
  pest or weed control at 750 g/ha: 45.2%

## COc1cc(OC)n2nc(NS(=O)(=O)c3c(C(F)(F)F)ccnc3OC)nc2n1 [pyroxsulam]
[1]; dosage 5 g/hm^2
  actual fresh weight inhibition rate: 63.5%
[1]; dosage 10 g/hm^2
  actual fresh weight inhibition rate: 81.9%
[1]; dosage 15 g/hm^2
  actual fresh weight inhibition rate: 91.5%
[2]; dosage 5 g/hm^2
  actual fresh weight inhibition rate: 19.4%
[2]; dosage 10 g/hm^2
  actual fresh weight inhibition rate: 31.7%
[2]; dosage 15 g/hm^2
  actual fresh weight inhibition rate: 55.6%

## CCNc1nc(NC(C)(C)C)nc(SC)n1 [terbutryn]
[2]; 480 h, Capsella bursa-pastoris, 125 g/hm^2, read-out: actual fresh weight inhibition rate
  pest or weed control at 125 g/ha: 15.4%
[2]; 480 h, Capsella bursa-pastoris, 275 g/hm^2, read-out: actual fresh weight inhibition rate
  pest or weed control at 275 g/ha: 25.3%
[2]; 480 h, Capsella bursa-pastoris, 425 g/hm^2, read-out: actual fresh weight inhibition rate
  pest or weed control at 425 g/ha: 40.9%
[3]; Myosoton aquaticum, 480 h, Myosoton aquaticum, 125 g/hm^2, read-out: actual fresh weight inhibition rate
  pest or weed control at 125 g/ha: 13.4%
[3]; Myosoton aquaticum, 480 h, Myosoton aquaticum, 275 g/hm^2, read-out: actual fresh weight inhibition rate
  pest or weed control at 275 g/ha: 29.3%
[3]; Myosoton aquaticum, 480 h, Myosoton aquaticum, 425 g/hm^2, read-out: actual fresh weight inhibition rate
  pest or weed control at 425 g/ha: 33.9%

## CCO/N=C(\CC)C1=C(O)CC(c2c(C)cc(C)cc2C)CC1=O (stereo not drawn) [tralkoxydim]
[1]; Alopecurus japonicus, 240 g/hm^2
  actual fresh weight inhibition rate: 74.5%
[1]; Alopecurus japonicus, 360 g/hm^2
  actual fresh weight inhibition rate: 81.2%
[1]; Alopecurus japonicus, 480 g/hm^2
  actual fresh weight inhibition rate: 89.8%
[2]; [5]
  pest or weed control at 240 g/ha: 0%
  pest or weed control at 360 g/ha: 0%
  pest or weed control at 480 g/ha: 0%

## dimethylammonium 4-chloro-o-tolyloxyacetate [MCPA-dimethylammonium, reference compound]
[2]; dosage 550 g/hm^2
  actual fresh weight inhibition rate (%): 29.2%
[2]; dosage 950 g/hm^2
  actual fresh weight inhibition rate (%): 43.6%
[2]; dosage 1350 g/hm^2
  actual fresh weight inhibition rate (%): 59.2%
[3]; dosage 550 g/hm^2
  actual fresh weight inhibition rate (%): 26.7%
[3]; dosage 950 g/hm^2
  actual fresh weight inhibition rate (%): 33.1%
[3]; dosage 1350 g/hm^2
  actual fresh weight inhibition rate (%): 47.2%
